Experiments:
giant foxtail = experiment: Test A pre-/postemergence herbicide test; format: in vivo, Setaria faberii
Summary of the method: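 Scoring was visual, relative to untreated controls, on a 0–100 scale after about 10 greenhouse days. Preemergence treatment used a directed soil spray over seeded loam/sand; postemergence treatment targeted one- to two-leaf plants of 2–10 cm.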

pigweed = experiment: Test C pre-/postemergence herbicide test; format: in vivo, Amaranthus retroflexus
Summary of the method: (§1)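 Response scores range from 0, meaning no effect, to 100, meaning complete control, assigned visually by comparison with controls roughly two weeks (13 to 15 days) after spraying. Applications were made preemergence to seeded loam–sand soil and postemergence to 1- to 4-leaf plants.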

oilseed rape = experiment: Test C pre-/postemergence herbicide test; format: in vivo, Brassica napus
Summary of the method: as §1

blackgrass = experiment: Test C pre-/postemergence herbicide test; format: in vivo, Alopecurus myosuroides
Summary of the method: as §1

oat, wild = experiment: Test C pre-/postemergence herbicide test; format: in vivo, Avena fatua; details: Postemergence
Summary of the method: as §1

ragweed = experiment: Test C pre-/postemergence herbicide test; format: in vivo, Ambrosia elatior
Summary of the method: as §1

waterhemp = experiment: Test C pre-/postemergence herbicide test; format: in vivo, Amaranthus rudis
Summary of the method: as §1

nutsedge, yellow = experiment: Test C pre-/postemergence herbicide test; format: in vivo, Cyperus esculentus
Summary of the method: as §1

velvetleaf = experiment: Test C pre-/postemergence herbicide test; format: in vivo, Abutilon theophrasti
Summary of the method: as §1

[1] = Postemergence, 8 g ai/ha, scale 0 to 100 (0 no effect, 100 complete control)
[2] = Postemergence, 16 g ai/ha, scale 0 to 100 (0 no effect, 100 complete control)
[3] = Postemergence, 31 g ai/ha, scale 0 to 100 (0 no effect, 100 complete control)
[4] = Postemergence, 62 g ai/ha, scale 0 (no effect) to 100 (complete control)
[5] = Preemergence, 31 g ai/ha, scale 0 to 100, 0 is no effect and 100 is complete control
[6] = Preemergence, 62 g ai/ha, scale 0 to 100 (0 no effect, 100 complete control)
[7] = Preemergence, 16 g ai/ha, scale 0 to 100
[8] = Preemergence, 8 g ai/ha, scale 0 to 100

SMILES: CN1CC(c2ccc(F)cc2)C(C(=O)Nc2cccc(F)c2F)C1=O (centres unmarked) [Compound 271]
- Plant response rating, Foxtail, Giant (giant foxtail; Postemergence, 125 g ai/ha, 0 to 100 scale, 0 is no effect, 100 is complete control): 90
- Plant response rating, Foxtail, Giant (giant foxtail; Postemergence, 500 g ai/ha, 0 to 100 scale (0 no effect, 100 complete control)): 90
- Plant response rating, Foxtail, Giant (giant foxtail; Preemergence, 125 g ai/ha, 0 to 100 scale where 0 is no effect and 100 is complete control): 90
- Plant response rating, Foxtail, Giant (giant foxtail; preemergence, 500 g ai/ha, 0 to 100 scale, 0 is no effect and 100 is complete control): 90
- Plant response rating, Pigweed (pigweed; [1]): 5
- Plant response rating, Pigweed (pigweed; [2]): 5
- Plant response rating, Pigweed (pigweed; [3]): 10
- Plant response rating, Pigweed (pigweed; [4]): 30
- Pigweed plant response rating (pigweed; [5]): 0
- Pigweed plant response rating (pigweed; [6]): 25
- Plant response rating, Pigweed (pigweed; [7]): 0
- Plant response rating, Oilseed Rape (oilseed rape; [1]): 0
- Plant response rating, Oilseed Rape (oilseed rape; [2]): 0
- Plant response rating, Oilseed Rape (oilseed rape; [3]): 0
- Plant response rating, Oilseed Rape (oilseed rape; [4]): 20
- Oilseed Rape plant response rating (oilseed rape; [5]): 0
- Oilseed Rape plant response rating (oilseed rape; [6]): 20
- Plant response rating, Oilseed Rape (oilseed rape; [8]): 0
- Plant response rating, Oilseed Rape (oilseed rape; [7]): 0
- Plant response rating, Blackgrass (blackgrass; [1]): 0
- Plant response rating, Blackgrass (blackgrass; [2]): 0
- Plant response rating, Blackgrass (blackgrass; [3]): 0
- Plant response rating, Blackgrass (blackgrass; [4]): 0
- Blackgrass plant response rating (blackgrass; [5]): 0
- Blackgrass plant response rating (blackgrass; [6]): 50
- Plant response rating, Blackgrass (blackgrass; [8]): 0
- Plant response rating, Oat, Wild (oat, wild; 8 g ai/ha, scale 0 to 100 (0 no effect, 100 complete control)): 0
- Plant response rating, Oat, Wild (oat, wild; 16 g ai/ha, scale 0 to 100 (0 no effect, 100 complete control)): 0
- Plant response rating, Oat, Wild (oat, wild; 31 g ai/ha, scale 0 to 100 (0 no effect, 100 complete control)): 0
- Plant response rating, Oat, Wild (oat, wild; 62 g ai/ha, scale 0 (no effect) to 100 (complete control)): 0
- Plant response rating, Ragweed (ragweed; [1]): 0
- Plant response rating, Ragweed (ragweed; [2]): 15
- Plant response rating, Ragweed (ragweed; [3]): 25
- Plant response rating, Ragweed (ragweed; [4]): 40
- Ragweed plant response rating (ragweed; [5]): 0
- Ragweed plant response rating (ragweed; [6]): 10
- Plant response rating, Ragweed (ragweed; [8]): 0
- Plant response rating, Ragweed (ragweed; [7]): 0
- Plant response rating, Waterhemp (waterhemp; [1]): 0
- Plant response rating, Waterhemp (waterhemp; [2]): 0
- Plant response rating, Waterhemp (waterhemp; [3]): 0
- Plant response rating, Waterhemp (waterhemp; [4]): 5
- Waterhemp plant response rating (waterhemp; [5]): 0
- Waterhemp plant response rating (waterhemp; [6]): 35
- Plant response rating, Waterhemp (waterhemp; [8]): 0
- Plant response rating, Waterhemp (waterhemp; [7]): 0
- Plant response rating, Nutsedge, Yellow (nutsedge, yellow; [1]): 0
- Plant response rating, Nutsedge, Yellow (nutsedge, yellow; [2]): 0
- Plant response rating, Nutsedge, Yellow (nutsedge, yellow; [3]): 0
- Plant response rating, Nutsedge, Yellow (nutsedge, yellow; [4]): 0
- Nutsedge, Yellow plant response rating (nutsedge, yellow; [5]): 0
- Nutsedge, Yellow plant response rating (nutsedge, yellow; [6]): 0
- Plant response rating, Nutsedge, Yellow (nutsedge, yellow; [8]): 0
- Plant response rating, Nutsedge, Yellow (nutsedge, yellow; [7]): 0
- Plant response rating, Velvetleaf (velvetleaf; [1]): 0
- Plant response rating, Velvetleaf (velvetleaf; [2]): 0
- Plant response rating, Velvetleaf (velvetleaf; [3]): 5
- Plant response rating, Velvetleaf (velvetleaf; [4]): 5
- Velvetleaf plant response rating (velvetleaf; [5]): 0
- Velvetleaf plant response rating (velvetleaf; [6]): 10
- Plant response rating, Velvetleaf (velvetleaf; [8]): 0
- Plant response rating, Velvetleaf (velvetleaf; [7]): 0

From patent US10294202B2, “Pyrrolidinones as herbicides” (FMC Corporation, priority 2013, dated 2019)
